Experimental findings from patent US5095038A, “Carbocyclic compounds useful as leukotriene antagonists” (ICI Americas Inc., priority 1989, dated 1992) are described below.

This experiment concerns the target T1, LTD4 /E4 receptors (Cavia porcellus, UniProt Q2NNR5).
T1 construct: membrane fractions, containing the LTD4 /E4 receptors, are prepared from guinea-pig lung parenchyma; from tissue; host or cells: guinea-pig lung parenchyma membrane fractions
T1 sequence (Q2NNR5 1-340): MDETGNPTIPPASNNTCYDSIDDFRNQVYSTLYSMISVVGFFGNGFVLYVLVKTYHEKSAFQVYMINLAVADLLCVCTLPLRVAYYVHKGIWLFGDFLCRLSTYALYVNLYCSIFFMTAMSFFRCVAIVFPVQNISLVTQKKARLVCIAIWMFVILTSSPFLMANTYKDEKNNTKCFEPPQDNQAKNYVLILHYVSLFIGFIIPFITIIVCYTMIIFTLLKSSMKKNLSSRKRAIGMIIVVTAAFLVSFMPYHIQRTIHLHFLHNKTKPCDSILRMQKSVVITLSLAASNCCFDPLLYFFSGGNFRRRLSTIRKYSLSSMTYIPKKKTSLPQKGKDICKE
The experiment in a line: receptor-ligand binding assay (3H-LTD4). Conditions: membrane fractions from guinea-pig lung parenchyma, 1nM 3H-LTD4, 30 minutes at 22° C.; Ki from IC50 by Cheng-Prusoff. The procedure: According to this procedure, membrane fractions, containing the LTD4 /E4 receptors, are prepared from guinea-pig lung parenchyma and incubated for 30 minutes at 22° C. with 1nM ^3 H-LTD4 in the absence or presence of tested antagonist. Specific binding, determined under conditions that prevent enzymatic metabolism of ^3 H-LTD4, is the net result of total ^3 H-LTD4 binding minus nonspecific binding determined in the presence of 1-2000 fold excess unlabelled LTD . Each assay is done in duplicate and results (Ki values) are typically a mean of several such determinations in individual receptor batches.
The % inhibition by a tested antagonist, relative to control binding (vehicle alone), is expressed as a fraction of log[antagonist] concentration (in molar units) and the half-maximal inhibition (IC50) determined by computerized non-linear least-square analysis. The binding constant (Ki) is then calculated from IC50 by the Cheng-Prusoff equation: [formula] where [L] is ^3 H-LTD4 concentraton and Kd is the affinity constant of LTD4 to this receptor, determined separately for each batch. (Biochem. Pharmacol. 22: 3099-3108, 1973).

The term Ki denotes a dissociation constant, usually derived from enzyme kinetics or from competition with a known ligand. Higher therefore signals weaker binding. Compound `CCC(C)CNC(=O)c1ccc2cccc(Cc3ccc(C(=O)NS(=O)(=O)c4ccccc4C)cc3OC)c2c1` (stereo not shown) [Example 10, 3-Methoxy-4-[7-(2-methylbutylcarbamoyl)naphth-1-ylmethyl]-N-(2-methylphenylsulfonyl)benzamide] had a Ki of 3.16 nM.
